Source: ChEMBL document CHEMBL1201862, “PubChem BioAssay data set” (2004)
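The compound was tested at five concentrations on cells cultured in 96-well plates, with a 48-hour exposure period. Here, GI50 denotes the concentration required for 50% inhibition of growth.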 Calls of active or inactive are those of the source. No stated cut-off is given here; in the data, active = GI50 up to about 1.1 µM and inactive = higher.

Columns and labels:
Assay in all cases: growth of human tumour cells (NCI), 48 h
SNB-75 = test system: SNB-75
KM-20L2 = test system: KM-20L2
HCT-116 = test system: HCT-116
OVCAR-5 = test system: OVCAR-5
UO-31 = test system: UO-31
DMS-273 = test system: DMS-273
KM12 = test system: KM12
NCI-H23 = test system: NCI-H23
786-0 = test system: 786-0
HOP-62 = test system: HOP-62
HT-29 = test system: HT-29
SR = test system: SR
CCRF-CEM = test system: CCRF-CEM
SK-OV-3 = test system: SK-OV-3
SK-MEL-28 = test system: SK-MEL-28
K562 = test system: K562
HCC 2998 = test system: HCC 2998
SN12C = test system: SN12C
M14 = test system: M14
OVCAR-4 = test system: OVCAR-4
U-251 = test system: U-251
Malme-3M = test system: Malme-3M
HOP-92 = test system: HOP-92
SF-268 = test system: SF-268
A498 = test system: A498
EKVX = test system: EKVX
COLO 205 = test system: COLO 205
OVCAR-8 = test system: OVCAR-8
SNB-19 = test system: SNB-19
LXFL 529 = test system: LXFL 529
CAKI-1 = test system: CAKI-1
SF-295 = test system: SF-295
SW-620 = test system: SW-620
RXF 393 = test system: RXF 393
UACC-62 = test system: UACC-62
A549 = test system: A549
SK-MEL-5 = test system: SK-MEL-5
DMS-114 = test system: DMS-114
OVCAR-3 = test system: OVCAR-3
IGROV-1 = test system: IGROV-1
RPMI-8226 = test system: RPMI-8226
NCI-H522 = test system: NCI-H522
HCT-15 = test system: HCT-15
HL-60 = test system: HL-60
SF-539 = test system: SF-539
TK-10 = test system: TK-10
MOLT-4 = test system: MOLT-4
DLD-1 = test system: DLD-1
SK-MEL-2 = test system: SK-MEL-2
M19-MEL = test system: M19-MEL

Structure (SMILES): NC(=O)CCC(NC(=O)Cc1ccccc1)C(=O)O (stereo not given)
- GI50 (SNB-75): 724 µM (inactive)
- GI50 (KM-20L2): > 2470 µM (inactive)
- GI50 (HCT-116): 1090 µM (inactive)
- GI50 (OVCAR-5): > 2470 µM (inactive)
- GI50 (UO-31): 667 µM (inactive)
- GI50 (DMS-273): > 2470 µM (inactive)
- GI50 (KM12): > 2470 µM (inactive)
- GI50 (NCI-H23): > 2470 µM (inactive)
- GI50 (786-0): > 2470 µM (inactive)
- GI50 (HOP-62): 1700 µM (inactive)
- GI50 (HT-29): > 2470 µM (inactive)
- GI50 (SR): > 2470 µM (inactive)
- GI50 (CCRF-CEM): 2320 µM (inactive)
- GI50 (SK-OV-3): > 2470 µM (inactive)
- GI50 (SK-MEL-28): 1160 µM (inactive)
- GI50 (K562): > 2470 µM (inactive)
- GI50 (HCC 2998): > 2470 µM (inactive)
- GI50 (SN12C): > 2470 µM (inactive)
- GI50 (M14): > 2470 µM (inactive)
- GI50 (OVCAR-4): 1390 µM (inactive)
- GI50 (U-251): 2000 µM (inactive)
- GI50 (Malme-3M): 1530 µM (inactive)
- GI50 (HOP-92): 1060 µM (inactive)
- GI50 (SF-268): 1420 µM (inactive)
- GI50 (A498): > 2470 µM (inactive)
- GI50 (EKVX): > 2470 µM (inactive)
- GI50 (COLO 205): > 2470 µM (inactive)
- GI50 (OVCAR-8): > 2470 µM (inactive)
- GI50 (SNB-19): > 2470 µM (inactive)
- GI50 (LXFL 529): > 2470 µM (inactive)
- GI50 (CAKI-1): 1280 µM (inactive)
- GI50 (SF-295): 1740 µM (inactive)
- GI50 (SW-620): > 2470 µM (inactive)
- GI50 (RXF 393): 531 µM (inactive)
- GI50 (UACC-62): > 2470 µM (inactive)
- GI50 (A549): > 2470 µM (inactive)
- GI50 (SK-MEL-5): > 2470 µM (inactive)
- GI50 (DMS-114): > 2470 µM (inactive)
- GI50 (OVCAR-3): > 2470 µM (inactive)
- GI50 (IGROV-1): 1610 µM (inactive)
- GI50 (RPMI-8226): 1030 µM (inactive)
- GI50 (NCI-H522): 841 µM (inactive)
- GI50 (HCT-15): > 2470 µM
- GI50 (HL-60): > 2470 µM (inactive)
- GI50 (SF-539): 1420 µM (inactive)
- GI50 (TK-10): 2120 µM (inactive)
- GI50 (MOLT-4): > 2470 µM (inactive)
- GI50 (DLD-1): > 2470 µM (inactive)
- GI50 (SK-MEL-2): > 2470 µM (inactive)
- GI50 (M19-MEL): > 2470 µM (inactive)
